From article PMC6429262, “Design and Synthesis of Novel Anti-Proliferative Emodin Derivatives and Studies on their Cell Cycle Arrest, Apoptosis Pathway and Migration” (Molecules, 2019)

Legend:
MCF-7 cells = assay: CellTiter-Glo Luminescent Cell Viability Assay, MCF-7; type: cell-based, human; conditions: MCF-7 cells, 48 h, mean of three independent experiments
Description: (§1) The in vitro anti-proliferative activities of all the novel synthesized compounds were evaluated against HepG2 cells and MCF-7 cells by CellTiter-Glo® Luminescent Cell Viability Assay, using paclitaxel (a clinically used drug) as a positive control. Emodin (1) and compound 2 were also included for comparison.
(§2) HepG2 cells and MCF-7 cells were purchased from American Type Culture Collection (ATCC, Manassas, VA, USA). Cells were cultured in T75 flask (430641, Corning, New York, NY, USA), supplemented with high-glucose DMEM medium (Dulbecco’s modified Eagle’s medium, 11965-092, Gibco, New York, NY, USA) containing 10% Fetal bovine serum (FBS) and 1% penicillin (100 units/mL)-streptomycin (100 µg/mL) in a humidified incubator at 37 °C under 5% CO2 and 95% relative humidity (RH) atmosphere. The cells were harvested for metabolomics experiments using cell scrapers.
(§3) HepG2 cells and MCF-7 cells in 40 µL DMEM supplemented with 10% FBS were seeded at a density of 500 cells/well in 384-well cell culture plate (3570, Corning), respectively. After 24 h, the medium was substituted with fresh medium containing various sample solutions in DMSO (0.5%, v/v) at a dose range of 0.14–100 µM with 3-fold serial dilutions, and cells were cultured for another 48 h. Cells were cultured in medium without samples but 0.5% DMSO served as a control. All measurements were determined in triplicate for each treatment. After the sample treatment for 48 h, 20 µL CellTiter-Glo (G7573, Promega, Fitchburg, WI, USA) was added to each well containing cells and the contents were mixed for 2 min on an orbital shaker to induce cell lysis. The plates were then incubated at room temperature for 20 min to stabilize the luminescent signal. The luminescence was recorded on an Envision 2014 (Perkin Elmer, Waltham, MA, UAS). The IC50 values represented the samples’ concentrations required to inhibit 50% of cell proliferation and were calculated from a calibration curve by linear regression using GraphPad Prism 7.0 software (GraphPad Software, San Diego, CA, USA).

HepG2 cells = assay: CellTiter-Glo Luminescent Cell Viability Assay, HepG2; type: cell-based, human; conditions: HepG2 cells, 48 h, mean of three independent experiments
Description: as §1, §2, §3

## Cc1cc(O)c2c(c1)C(=O)c1cc(OCCO)cc(O)c1C2=O [Compound 2, 1,8-Dihydroxy-3-(2-hydroxyethoxy)-6-methylanthracene-9,10-dione]
MCF-7 cells; Homo sapiens, MCF7, 48 h
  IC50: 86.4 ± 3.98 µM
HepG2 cells; Homo sapiens, HepG2, 48 h
  IC50: 64.1 ± 2.37 µM

## Cc1cc(O)c2c(c1)C(=O)c1cc(OCCOC(=O)CN)cc(O)c1C2=O [Compound 3a, 2-(2-(4,5-Dihydroxy-7-methyl-9,10-dioxo-9,10-dihydroanthracen-2-yloxy)ethoxy)-2-oxoethanaminium 2,2,2-trifluoroacetate]
MCF-7 cells; Homo sapiens, MCF7, 48 h
  IC50: 66.9 ± 1.65 µM
HepG2 cells; Homo sapiens, HepG2, 48 h
  IC50: 22.7 ± 0.78 µM

## Cc1cc(O)c2c(c1)C(=O)c1cc(OCCOC(=O)[C@@H](N)CO)cc(O)c1C2=O [Compound 3d, (S)-1-(2-(4,5-Dihydroxy-7-methyl-9,10-dioxo-9,10-dihydroanthracen-2-yloxy)ethoxy)-3-hydroxy-1-oxopropan-2-aminium 2,2,2-trifluoroacetate]
MCF-7 cells; Homo sapiens, MCF7, 48 h
  IC50: 34 ± 1.98 µM
HepG2 cells; Homo sapiens, HepG2, 48 h
  IC50: 12 ± 1.19 µM

## Cc1cc(O)c2c(c1)C(=O)c1cc(OCCOC(=O)[C@H](N)C(C)C)cc(O)c1C2=O [Compound 3e, (R)-1-(2-(4,5-Dihydroxy-7-methyl-9,10-dioxo-9,10-dihydroanthracen-2-yloxy)ethoxy)-3-methyl-1-oxobutan-2-aminium 2,2,2-trifluoroacetate]
MCF-7 cells; Homo sapiens, MCF7, 48 h
  IC50: 14.2 ± 0.23 µM
HepG2 cells; Homo sapiens, HepG2, 48 h
  IC50: 14.4 ± 1.09 µM

## Cc1cc(O)c2c(c1)C(=O)c1cc(OCCOC(=O)[C@@H](N)C(C)C)cc(O)c1C2=O [Compound 3f, (S)-1-(2-(4,5-Dihydroxy-7-methyl-9,10-dioxo-9,10-dihydroanthracen-2-yloxy)ethoxy)-3-methyl-1-oxobutan-2-aminium 2,2,2-trifluoroacetate]
MCF-7 cells; Homo sapiens, MCF7, 48 h
  IC50: 16 ± 0.51 µM
HepG2 cells; Homo sapiens, HepG2, 48 h
  IC50: 12.4 ± 0.35 µM

## Cc1cc(O)c2c(c1)C(=O)c1cc(OCCOC(=O)[C@@H](N)CC(C)C)cc(O)c1C2=O [Compound 3g, (S)-1-(2-(4,5-Dihydroxy-7-methyl-9,10-dioxo-9,10-dihydroanthracen-2-yloxy)ethoxy)-4-methyl-1-oxopentan-2-aminium 2,2,2-trifluoroacetate]
MCF-7 cells; Homo sapiens, MCF7, 48 h
  IC50: 16.1 ± 0.23 µM
HepG2 cells; Homo sapiens, HepG2, 48 h
  IC50: 15.9 ± 0.33 µM

## CCC(C)[C@H](N)C(=O)OCCOc1cc(O)c2c(c1)C(=O)c1cc(C)cc(O)c1C2=O (stereo partly drawn) [Compound 3h, (2S)-1-(2-(4,5-dihydroxy-7-methyl-9,10-dioxo-9,10-dihydroanthracen-2-yloxy)ethoxy)-3-methyl-1-oxo-pentan-2-aminium 2,2,2-trifluoroacetate]
MCF-7 cells; Homo sapiens, MCF7, 48 h
  IC50: 12.8 ± 1.05 µM
HepG2 cells; Homo sapiens, HepG2, 48 h
  IC50: 14.4 ± 0.27 µM

## CSCC[C@H](N)C(=O)OCCOc1cc(O)c2c(c1)C(=O)c1cc(C)cc(O)c1C2=O [Compound 3i, (S)-1-(2-(4,5-Dihydroxy-7-methyl-9,10-dioxo-9,10-dihydroanthracen-2-yloxy)ethoxy)-4-(methylthio)-1-oxobutan-2-aminium 2,2,2-trifluoroacetate]
MCF-7 cells; Homo sapiens, MCF7, 48 h
  IC50: 17.2 ± 0.41 µM
HepG2 cells; Homo sapiens, HepG2, 48 h
  IC50: 17.2 ± 0.2 µM

## Cc1cc(O)c2c(c1)C(=O)c1cc(OCCOC(=O)C(C)(C)N)cc(O)c1C2=O [Compound 3j, 1-(2-(4,5-Dihydroxy-7-methyl-9,10-dioxo-9,10-dihydroanthracen-2-yloxy)ethoxy)-2-methyl-1-oxopropan-2-aminium 2,2,2-trifluoroacetate]
MCF-7 cells; Homo sapiens, MCF7, 48 h
  IC50: 29.8 ± 1.78 µM
HepG2 cells; Homo sapiens, HepG2, 48 h
  IC50: 25.8 ± 5.28 µM

## Cc1cc(O)c2c(c1)C(=O)c1cc(OCCOC(=O)C3(N)CC3)cc(O)c1C2=O [Compound 3k, 1-((2-(4,5-Dihydroxy-7-methyl-9,10-dioxo-9,10-dihydroanthracen-2-yloxy)ethoxy)carbonyl)cyclopropan-aminium 2,2,2-trifluoroacetate]
MCF-7 cells; Homo sapiens, MCF7, 48 h
  IC50: > 100 µM
HepG2 cells; Homo sapiens, HepG2, 48 h
  IC50: 53.2 ± 8.7 µM

## Cc1cc(O)c2c(c1)C(=O)c1cc(OCCOC(=O)C3(N)CCC3)cc(O)c1C2=O [Compound 3l, 1-((2-(4,5-Dihydroxy-7-methyl-9,10-dioxo-9,10-dihydroanthracen-2-yloxy)ethoxy)carbonyl)cyclobutan-aminium 2,2,2-trifluoroacetate]
MCF-7 cells; Homo sapiens, MCF7, 48 h
  IC50: > 100 µM
HepG2 cells; Homo sapiens, HepG2, 48 h
  IC50: 67.49 ± 0.56 µM

## Cc1cc(O)c2c(c1)C(=O)c1cc(OCCOC(=O)C3(N)COC3)cc(O)c1C2=O [Compound 3m, 3-((2-(4,5-Dihydroxy-7-methyl-9,10-dioxo-9,10-dihydroanthracen-2-yloxy)ethoxy)carbonyl)oxetan-3-aminium 2,2,2-trifluoroacetate]
MCF-7 cells; Homo sapiens, MCF7, 48 h
  IC50: > 100 µM
HepG2 cells; Homo sapiens, HepG2, 48 h
  IC50: > 100 µM

## Cc1cc(O)c2c(c1)C(=O)c1cc(OCCOC(=O)C3(N)CCCC3)cc(O)c1C2=O [Compound 3n, 1-((2-(4,5-Dihydroxy-7-methyl-9,10-dioxo-9,10-dihydroanthracen-2-yloxy)ethoxy)carbonyl)cyclopentan-aminium 2,2,2-trifluoroacetate]
MCF-7 cells; Homo sapiens, MCF7, 48 h
  IC50: 23.5 ± 1.93 µM
MCF-7 cells
  IC50: 18.5 ± 1.93 µM
HepG2 cells
  IC50: 17.5 ± 0.59 µM
HepG2 cells; Homo sapiens, HepG2, 48 h
  IC50: 12.5 ± 0.59 µM

## Cc1cc(O)c2c(c1)C(=O)c1cc(OCCOC(=O)[C@H]3CCCN3)cc(O)c1C2=O [Compound 3o, (R)-2-((2-(4,5-Dihydroxy-7-methyl-9,10-dioxo-9,10-dihydroanthracen-2-yloxy)ethoxy)carbonyl)-pyrrolidinium 2,2,2-trifluoroacetate]
MCF-7 cells; Homo sapiens, MCF7, 48 h
  IC50: 17.6 ± 0.29 µM
HepG2 cells; Homo sapiens, HepG2, 48 h
  IC50: 17.6 ± 0.43 µM

## Cc1cc(O)c2c(c1)C(=O)c1cc(OCCOC(=O)[C@@H]3CCCN3)cc(O)c1C2=O [Compound 3p, (S)-2-((2-(4,5-Dihydroxy-7-methyl-9,10-dioxo-9,10-dihydroanthracen-2-yloxy)ethoxy)carbonyl)-pyrrolidinium 2,2,2-trifluoroacetate]
MCF-7 cells; Homo sapiens, MCF7, 48 h
  IC50: 20 ± 1.82 µM
HepG2 cells; Homo sapiens, HepG2, 48 h
  IC50: 19 ± 0.6 µM

## Cc1cc(O)c2c(c1)C(=O)c1cc(OCCOC(=O)[C@H](N)c3ccccc3)cc(O)c1C2=O [Compound 3q, (R)-2-(2-(4,5-Dihydroxy-7-methyl-9,10-dioxo-9,10-dihydroanthracen-2-yloxy)ethoxy)-2-oxo-1-phenyl-ethanaminium 2,2,2-trifluoroacetate]
MCF-7 cells; Homo sapiens, MCF7, 48 h
  IC50: 28.5 ± 1.74 µM
HepG2 cells; Homo sapiens, HepG2, 48 h
  IC50: 25.9 ± 0.48 µM

## Cc1cc(O)c2c(c1)C(=O)c1cc(OCCOC(=O)[C@@H](N)c3ccccc3)cc(O)c1C2=O [Compound 3r, (S)-2-(2-(4,5-Dihydroxy-7-methyl-9,10-dioxo-9,10-dihydroanthracen-2-yloxy)ethoxy)-2-oxo-1-phenyl-ethanaminium 2,2,2-trifluoroacetate]
MCF-7 cells; Homo sapiens, MCF7, 48 h
  IC50: 25.7 ± 0.61 µM
HepG2 cells; Homo sapiens, HepG2, 48 h
  IC50: 19.3 ± 1.08 µM

## Cc1cc(O)c2c(c1)C(=O)c1cc(OCCOC(=O)[C@H](N)c3ccc(O)cc3)cc(O)c1C2=O [Compound 3s, (R)-2-(2-(4,5-Dihydroxy-7-methyl-9,10-dioxo-9,10-dihydroanthracen-2-yloxy)ethoxy)-1-(4-hydroxyphenyl)-2-oxoethanaminium 2,2,2-trifluoroacetate]
MCF-7 cells; Homo sapiens, MCF7, 48 h
  IC50: 25.9 ± 1.09 µM
HepG2 cells; Homo sapiens, HepG2, 48 h
  IC50: 18.5 ± 0.55 µM

## Cc1cc(O)c2c(c1)C(=O)c1cc(OCCOC(=O)[C@@H](N)c3ccc(O)cc3)cc(O)c1C2=O [Compound 3t, (S)-2-(2-(4,5-Dihydroxy-7-methyl-9,10-dioxo-9,10-dihydroanthracen-2-yloxy)ethoxy)-1-(4-hydroxyphenyl)-2-oxoethanaminium 2,2,2-trifluoroacetate]
MCF-7 cells; Homo sapiens, MCF7, 48 h
  IC50: 39.6 ± 1.97 µM
HepG2 cells; Homo sapiens, HepG2, 48 h
  IC50: 26.1 ± 1.44 µM

## Cc1cc(O)c2c(c1)C(=O)c1cc(OCCOC(=O)[C@H](N)c3ccc(F)cc3)cc(O)c1C2=O [Compound 3u, (R)-2-(2-(4,5-Dihydroxy-7-methyl-9,10-dioxo-9,10-dihydroanthracen-2-yloxy)ethoxy)-1-(4-fluorophenyl)-2-oxoethanaminium 2,2,2-trifluoroacetate]
MCF-7 cells; Homo sapiens, MCF7, 48 h
  IC50: 20.8 ± 0.32 µM
HepG2 cells; Homo sapiens, HepG2, 48 h
  IC50: 14.3 ± 1.04 µM

## Cc1cc(O)c2c(c1)C(=O)c1cc(OCCOC(=O)[C@@H](N)c3ccc(F)cc3)cc(O)c1C2=O [Compound 3v, (S)-2-(2-(4,5-Dihydroxy-7-methyl-9,10-dioxo-9,10-dihydroanthracen-2-yloxy)ethoxy)-1-(4-fluorophenyl)-2-oxoethanaminium 2,2,2-trifluoroacetate]
MCF-7 cells; Homo sapiens, MCF7, 48 h
  IC50: 22.6 ± 0.9 µM
HepG2 cells; Homo sapiens, HepG2, 48 h
  IC50: 11.4 ± 0.77 µM

## Cc1cc(O)c2c(c1)C(=O)c1cc(OCCOC(=O)[C@H](N)Cc3ccccc3)cc(O)c1C2=O [Compound 3w, (R)-1-(2-(4,5-Dihydroxy-7-methyl-9,10-dioxo-9,10-dihydroanthracen-2-yloxy)ethoxy)-1-oxo-3-phenyl-propan-2-aminium 2,2,2-trifluoroacetate]
MCF-7 cells; Homo sapiens, MCF7, 48 h
  IC50: 42.4 ± 1.16 µM
HepG2 cells; Homo sapiens, HepG2, 48 h
  IC50: 31.5 ± 2.72 µM

## Cc1cc(O)c2c(c1)C(=O)c1cc(OCCOC(=O)[C@@H](N)Cc3ccccc3)cc(O)c1C2=O [Compound 3x, (S)-1-(2-(4,5-Dihydroxy-7-methyl-9,10-dioxo-9,10-dihydroanthracen-2-yloxy)ethoxy)-1-oxo-3-phenyl-propan-2-aminium 2,2,2-trifluoroacetate]
MCF-7 cells; Homo sapiens, MCF7, 48 h
  IC50: 18.1 ± 0.32 µM
HepG2 cells; Homo sapiens, HepG2, 48 h
  IC50: 16.2 ± 0.36 µM

## Cc1cc(O)c2c(c1)C(=O)c1cc(OCCOC(=O)[C@H](N)Cc3ccc(O)cc3)cc(O)c1C2=O [Compound 3y, (R)-1-(2-(4,5-Dihydroxy-7-methyl-9,10-dioxo-9,10-dihydroanthracen-2-yloxy)ethoxy)-3-(4-hydroxyphenyl)-1-oxopropan-2-aminium 2,2,2-trifluoroacetate]
MCF-7 cells; Homo sapiens, MCF7, 48 h
  IC50: 38.3 ± 1.92 µM
HepG2 cells; Homo sapiens, HepG2, 48 h
  IC50: 20.3 ± 1.4 µM
